{
  "source": "patent US6310091A",
  "about": "“Fungicidal saponin, CAY-1, and isolation thereof from Capsium species fruit” (The United States of America as represented by the …, priority 2000, dated 2001)",
  "key": {"Aspergillus flavus": {"system": "Aspergillus flavus", "assay": "Fungicidal bioassay on nongerminated and germinating conidia of A. flavus", "assay_type": "cell-based", "method": "(§1) 1. Filamentous fungi. Filamentous fungi used in bioassays included Aspergillus flavus, A. fumigatus, A. niger, A. parasiticus and Fusarium oxysporum. The fungicidal properties of CAY-1 for the nongerminated and germinating conidia of these fungi were determined separately as described by De Lucca et al. [Med. Mycol., 36:291-298 (1998)] and De Lucca et al. [Antimicrob. Agents Chemother. 43:371-373 (1999)]. […] Two separate experiments were conducted in each medium (n=8 per medium).\n(§2) A suspension of the aforementioned fungi were prepared separately in the appropriate medium. Conidia (10^4 conidia/ml) were used immediately for the nongerminated conidial assays while conidia (10^5 conidia/ml) were incubated for 7.5 hours at 30° C. to obtain germinating conidia. Serial dilutions of CAY-1 were prepared in the appropriate medium (totaling 225 μl) to which was added 25 μl of the conidial suspensions. The control consisted of 225 μl of medium and 25 μl of the conidial suspension. After mixing, the samples were incubated for 30 min (30° C.). Samples were then spread on potato dextrose agar plates which were incubated at 30° C. for 24 hours. Colonies were then enumerated.\n(§3) Statistical analyses. ANOVA analyses on ranks for nonparametric data were performed for the bioassays described in this example."}, "Aspergillus parasiticus": {"system": "Aspergillus parasiticus", "assay": "Fungicidal bioassay on nongerminated and germinating conidia of A. parasiticus", "assay_type": "cell-based", "conditions": "for activity at 5 µM / activity at 10 µM / activity at 15 µM / activity at 20 µM / minimal effective concentration: Aspergillus parasiticus, 0.5 h; for activity at 5 µM / activity at 10 µM / activity at 15 µM / activity at 20 µM: read-out: Percent of Mean Control; for viability reduction: 20.0 μM (24.8 μg/ml)", "method": "as §1, §2, §3"}, "[1]": {"conditions": "nongerminated conidia, either test medium"}, "[2]": {"conditions": "nongerminated, RPMI-1640, 5.0 μM"}, "[3]": {"conditions": "nongerminated, RPMI-1640, 10.0 μM"}, "[4]": {"conditions": "nongerminated, RPMI-1640, 15.0 μM"}, "[5]": {"conditions": "nongerminated, RPMI-1640, 20.0 μM"}},
  "note": "Several values for one entry are separate records, joined by “and”; a condition that tells them apart may be missing. Identical values can stand only once. Like-named read-outs stand apart in the source and are kept apart here.",
  "data": [
    {"smiles": "CC1CCC2(OC1)OC1CC3C4CCC5CC(OC6OC(CO)C(OC7OC(CO)C(O)C(OC8OC(CO)C(O)C(OC9OC(CO)C(O)C(O)C9O)C8O)C7OC7OC(CO)C(O)C(O)C7O)C(O)C6O)C(O)CC5(C)C4CCC3(C)C1C2C", "note": "(stereo not shown) [CAY-1]", "values": [
      {"measurement": "Mean No. of Colonies", "setting": "Aspergillus flavus; germinating, RPMI-1640, 1.0 μM", "result": 52.6},
      {"measurement": "Mean No. of Colonies", "setting": "Aspergillus flavus; germinating, RPMI-1640, 2.5 μM", "result": 57.8},
      {"measurement": "Mean No. of Colonies", "setting": "Aspergillus flavus; germinating, RPMI-1640, 5.0 μM", "result": 25.1},
      {"measurement": "Mean No. of Colonies", "setting": "Aspergillus flavus; germinating, RPMI-1640, 7.5 μM", "result": 5.6},
      {"measurement": "Mean No. of Colonies", "setting": "Aspergillus flavus; germinating, RPMI-1640, 10.0 μM", "result": 3.6},
      {"measurement": "viability of nongerminated conidia", "setting": "Aspergillus flavus; [1]", "result": "not affected"},
      {"measurement": "Mean No. of Colonies", "setting": "Aspergillus flavus; nongerminated, 1% PDB, 2.0 μM", "result": 54.4},
      {"measurement": "Mean No. of Colonies", "setting": "Aspergillus flavus; nongerminated, 1% PDB, 3.0 μM", "result": 54.8},
      {"measurement": "Mean No. of Colonies", "setting": "Aspergillus flavus; nongerminated, 1% PDB, 4.0 μM", "result": 55.2},
      {"measurement": "Mean No. of Colonies", "setting": "Aspergillus flavus; nongerminated, 1% PDB, 5.0 μM", "result": 55.7},
      {"measurement": "Mean No. of Colonies", "setting": "Aspergillus flavus; nongerminated, 1% PDB, 7.5 μM", "result": 56.9},
      {"measurement": "Mean No. of Colonies", "setting": "Aspergillus flavus; nongerminated, 1% PDB, 10.0 μM", "result": 58.0},
      {"measurement": "Mean No. of Colonies", "setting": "Aspergillus flavus; nongerminated, RPMI-1640, 1.0 μM", "result": 53.6},
      {"measurement": "Mean No. of Colonies", "setting": "Aspergillus flavus; nongerminated, RPMI-1640, 2.5 μM", "result": 55.8},
      {"measurement": "Mean No. of Colonies", "setting": "Aspergillus flavus; [2]", "result": 55.5},
      {"measurement": "Mean No. of Colonies", "setting": "Aspergillus flavus; nongerminated, RPMI-1640, 7.5 μM", "result": 54.9},
      {"measurement": "Mean No. of Colonies", "setting": "Aspergillus flavus; [3]", "result": 60.0},
      {"measurement": "activity at 5 µM", "setting": "Aspergillus parasiticus; germinated, RPMI-1640, 5.0 μM", "result": 56.6, "unit": "%"},
      {"measurement": "activity at 10 µM", "setting": "Aspergillus parasiticus; germinated, RPMI-1640, 10.0 μM", "result": 17.5, "unit": "%"},
      {"measurement": "activity at 15 µM", "setting": "Aspergillus parasiticus; germinated, RPMI-1640, 15.0 μM", "result": 12.7, "unit": "%"},
      {"measurement": "activity at 20 µM", "setting": "Aspergillus parasiticus; germinated, RPMI-1640, 20.0 μM", "result": 8.1, "unit": "%"},
      {"measurement": "activity at 5 µM", "setting": "Aspergillus parasiticus; germinating, 1% PDB, 5.0 μM", "result": 61.9, "unit": "%"},
      {"measurement": "activity at 10 µM", "setting": "Aspergillus parasiticus; germinating, 1% PDB, 10.0 μM", "result": 28, "unit": "%"},
      {"measurement": "activity at 15 µM", "setting": "Aspergillus parasiticus; germinating, 1% PDB, 15.0 μM", "result": 21, "unit": "%"},
      {"measurement": "activity at 20 µM", "setting": "Aspergillus parasiticus; germinating, 1% PDB, 20.0 μM", "result": 16.5, "unit": "%"},
      {"measurement": "activity at 5 µM", "setting": "Aspergillus parasiticus; nongerminated, 1% PDB, 5.0 μM", "result": 97.3, "unit": "%"},
      {"measurement": "activity at 10 µM", "setting": "Aspergillus parasiticus; nongerminated, 1% PDB, 10.0 μM", "result": 100, "unit": "%"},
      {"measurement": "activity at 15 µM", "setting": "Aspergillus parasiticus; nongerminated, 1% PDB, 15.0 μM", "result": 93.9, "unit": "%"},
      {"measurement": "activity at 20 µM", "setting": "Aspergillus parasiticus; nongerminated, 1% PDB, 20.0 μM", "result": 94.5, "unit": "%"},
      {"measurement": "activity at 5 µM", "setting": "Aspergillus parasiticus; [2]", "result": 103, "unit": "%"},
      {"measurement": "activity at 10 µM", "setting": "Aspergillus parasiticus; [3]", "result": 103, "unit": "%"},
      {"measurement": "activity at 15 µM", "setting": "Aspergillus parasiticus; [4]", "result": 87.9, "unit": "%"},
      {"measurement": "activity at 20 µM", "setting": "Aspergillus parasiticus; [5]", "result": 97.6, "unit": "%"},
      {"measurement": "minimal effective concentration", "setting": "Aspergillus parasiticus; read-out: concentration required for significant viability reduction", "result": 12.4, "unit": "µg/mL"},
      {"measurement": "minimal effective concentration", "setting": "Aspergillus parasiticus; germinating conidia, 1% PDB, p=0.001, read-out: concentration significantly reducing viability", "result": "5 µM and 6.2 µg/mL"},
      {"measurement": "minimal effective concentration", "setting": "Aspergillus parasiticus; germinating conidia, RPMI-1640, p=0.0002, read-out: concentration required for significant viability reduction", "result": 10, "unit": "µM"},
      {"measurement": "Mean No. of Colonies", "setting": "Aspergillus parasiticus; germinated, RPMI-1640, 5.0 μM", "result": 40.1},
      {"measurement": "Mean No. of Colonies", "setting": "Aspergillus parasiticus; germinated, RPMI-1640, 10.0 μM", "result": 12.4},
      {"measurement": "Mean No. of Colonies", "setting": "Aspergillus parasiticus; germinated, RPMI-1640, 15.0 μM", "result": 9.0},
      {"measurement": "Mean No. of Colonies", "setting": "Aspergillus parasiticus; germinated, RPMI-1640, 20.0 μM", "result": 5.7},
      {"measurement": "viability reduction", "setting": "Aspergillus parasiticus; germinating conidia, 1% PDB", "result": 85, "unit": "%"},
      {"measurement": "viability reduction", "setting": "Aspergillus parasiticus; germinating conidia, RPMI-1640", "result": 92, "unit": "%"},
      {"measurement": "Mean No. of Colonies", "setting": "Aspergillus parasiticus; germinating, 1% PDB, 5.0 μM", "result": 95.5},
      {"measurement": "Mean No. of Colonies", "setting": "Aspergillus parasiticus; germinating, 1% PDB, 10.0 μM", "result": 43.3},
      {"measurement": "Mean No. of Colonies", "setting": "Aspergillus parasiticus; germinating, 1% PDB, 15.0 μM", "result": 32.5},
      {"measurement": "Mean No. of Colonies", "setting": "Aspergillus parasiticus; germinating, 1% PDB, 20.0 μM", "result": 25.5},
      {"measurement": "viability of nongerminated conidia", "setting": "Aspergillus parasiticus; [1]", "result": "not affected"},
      {"measurement": "Mean No. of Colonies", "setting": "Aspergillus parasiticus; nongerminated, 1% PDB, 5.0 μM", "result": 53.1},
      {"measurement": "Mean No. of Colonies", "setting": "Aspergillus parasiticus; nongerminated, 1% PDB, 10.0 μM", "result": 54.6},
      {"measurement": "Mean No. of Colonies", "setting": "Aspergillus parasiticus; nongerminated, 1% PDB, 15.0 μM", "result": 51.3},
      {"measurement": "Mean No. of Colonies", "setting": "Aspergillus parasiticus; nongerminated, 1% PDB, 20.0 μM", "result": 51.9},
      {"measurement": "Mean No. of Colonies", "setting": "Aspergillus parasiticus; [2]", "result": 42.5},
      {"measurement": "Mean No. of Colonies", "setting": "Aspergillus parasiticus; [3]", "result": 42.5},
      {"measurement": "Mean No. of Colonies", "setting": "Aspergillus parasiticus; [4]", "result": 36.4},
      {"measurement": "Mean No. of Colonies", "setting": "Aspergillus parasiticus; [5]", "result": 40.4}
    ]}
  ]
}
